Experimental data reported in the supplement of paper PMC10307832.

Compound: CC1(COc2ccc3c(c2)ncn3-c2ccc3cccc(N4CCC(N)CC4)c3n2)COC1 [Crenolanib] + CS(=O)(=O)CCNCc1ccc(-c2ccc3ncnc(Nc4ccc(OCc5cccc(F)c5)c(Cl)c4)c3c2)o1 [Lapatinib] (partner 2 µM)
Experiment: relative viability (nuclei count vs DMSO), 5 days (fraction); higher = more cells survive
Details: first compound 1 µM
How it was run: (§1)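 Relative viability equals treated-well nuclei counts divided by vehicle-well nuclei counts. Counts came from 4× images of lung cancer cell lines grown in 1536-well plates for 5 days after pin-tool dosing on the day after seeding. Dosing used one drug alone or a fixed anchor-drug dose plus five library-drug doses (not always all listed) in √10 steps, and values are medians of duplicate plates.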

Row | Cell Line | relative viability
1 | COR-L 105 | 0.335
2 | LC-2-ad | 0.992
3 | LU99A | 0.955
4 | NCI-H2170 | 0.247
5 | NCI-H3122 | 1.21
6 | IA-LM | 1.51
7 | HCC-78 | 0.467
8 | A549 | 1.1
9 | NCI-H1395 | 0.971
10 | NCI-H1299 | 0.887
11 | NCI-H1793 | 0.645
12 | NCI-H1650 | 0.512

Compound: O=C1NC(=O)[C@@H](c2cn3c4c(cccc24)CCC3)[C@@H]1c1c[nH]c2ccccc12 [Tivantinib] + COc1cccc2cc(-c3nc([C@H]4CC[C@H](C(=O)O)CC4)n4ncnc(N)c34)[nH]c12 [OSI-027] (partner 0.5 µM)
Experiment: as above
Details: first compound 0.01 µM
How it was run: as §1

Row | Cell Line | relative viability
13 | NCI-H522 | 0.749
14 | NCI-H1623 | 0.434
15 | NCI-H838 | 0.394
16 | NCI-H1651 | 0.846
17 | NCI-H1734 | 0.646
18 | NCI-H2009 | 0.677
19 | EPLC-272H | 0.319
20 | PC-14 | 0.942
21 | LCLC-97TM1 | 0.44
22 | NCI-H596 | 0.619
23 | EMC-BAC-2 | 0.366
24 | NCI-H2087 | 0.635
25 | HCC-44 | 0.488
26 | NCI-H647 | 0.792
27 | LK-2 | 0.225
28 | NCI-H2126 | 0.639
29 | NCI-H2342 | 0.63

Row | Cell Line | relative viability
30 | SK-MES-1 | 0.668
31 | HARA | 0.583
32 | COR-L23 | 0.783
33 | COR-L 105 | 0.838
34 | LC-2-ad | 0.851
35 | LU99A | 0.295
36 | ChaGo-K-1 | 0.662
37 | NCI-H2170 | 0.645
38 | NCI-H3122 | 0.985
39 | HCC-78 | 0.36
40 | SW 900 | 0.605
41 | NCI-H1648 | 0.254
42 | NCI-H441 | 0.517
43 | NCI-H1395 | 0.678
44 | NCI-H1793 | 0.257
45 | LCLC-103H | 0.471
46 | NCI-H1650 | 0.681

Same assay, conditions: first compound 0.03162 µM

Row | Cell Line | relative viability
47 | NCI-H522 | 0.648
48 | NCI-H1623 | 0.442
49 | NCI-H838 | 0.377
50 | NCI-H1651 | 0.654
51 | NCI-H1734 | 0.553
52 | NCI-H2009 | 0.529
53 | EPLC-272H | 0.32
54 | PC-14 | 0.784
55 | LCLC-97TM1 | 0.473
56 | NCI-H596 | 0.62
57 | NCI-H2228 | 0.548
58 | EMC-BAC-2 | 0.3
59 | NCI-H2087 | 0.511
60 | HCC-44 | 0.534
61 | NCI-H647 | 0.618
62 | NCI-H2126 | 0.63
63 | NCI-H2342 | 0.597

Row | Cell Line | relative viability
64 | SK-MES-1 | 0.435
65 | HARA | 0.359
66 | COR-L23 | 0.7
67 | COR-L 105 | 0.378
68 | LC-2-ad | 0.738
69 | LU99A | 0.295
70 | ChaGo-K-1 | 0.482
71 | NCI-H2170 | 0.718
72 | NCI-H3122 | 0.914
73 | HCC-78 | 0.37
74 | SW 900 | 0.443
75 | NCI-H1648 | 0.259
76 | NCI-H441 | 0.608
77 | NCI-H1395 | 0.662
78 | NCI-H1793 | 0.355
79 | LCLC-103H | 0.425
80 | NCI-H1650 | 0.535

Same assay, conditions: first compound 0.1 µM

Row | Cell Line | relative viability
81 | NCI-H522 | 0.624
82 | NCI-H1623 | 0.487
83 | NCI-H838 | 0.345
84 | NCI-H1651 | 0.625
85 | NCI-H1734 | 0.643
86 | NCI-H2009 | 0.61
87 | EPLC-272H | 0.293
88 | PC-14 | 0.755
89 | LCLC-97TM1 | 0.428
90 | NCI-H596 | 0.821
91 | NCI-H2228 | 0.541
92 | EMC-BAC-2 | 0.347
93 | NCI-H2087 | 0.465
94 | HCC-44 | 0.441
95 | NCI-H647 | 0.574
96 | LK-2 | 0.219
97 | NCI-H2126 | 0.658
98 | NCI-H2342 | 0.585

Row | Cell Line | relative viability
99 | SK-MES-1 | 0.554
100 | HARA | 0.509
101 | COR-L23 | 0.787
102 | COR-L 105 | 0.581
103 | LC-2-ad | 0.816
104 | LU99A | 0.296
105 | ChaGo-K-1 | 0.607
106 | NCI-H2170 | 0.652
107 | NCI-H3122 | 0.93
108 | HCC-78 | 0.367
109 | SW 900 | 0.583
110 | NCI-H1648 | 0.238
111 | NCI-H441 | 0.498
112 | NCI-H1395 | 0.651
113 | NCI-H1793 | 0.258
114 | LCLC-103H | 0.41
115 | NCI-H1650 | 0.634

Same assay, conditions: first compound 0.3162 µM

Row | Cell Line | relative viability
116 | NCI-H522 | 0.617
117 | NCI-H838 | 0.363
118 | NCI-H1651 | 0.713
119 | NCI-H1734 | 0.576
120 | NCI-H2009 | 0.713
121 | EPLC-272H | 0.147
122 | PC-14 | 0.598
123 | LCLC-97TM1 | 0.36
124 | NCI-H596 | 0.734
125 | NCI-H2228 | 0.234
126 | EMC-BAC-2 | 0.357
127 | NCI-H2087 | 0.478
128 | HCC-44 | 0.669
129 | NCI-H647 | 0.83
130 | LK-2 | 0.243
131 | NCI-H2126 | 0.549

Row | Cell Line | relative viability
132 | NCI-H2342 | 0.532
133 | SK-MES-1 | 0.482
134 | HARA | 0.26
135 | COR-L23 | 0.919
136 | COR-L 105 | 0.363
137 | LC-2-ad | 0.573
138 | LU99A | 0.249
139 | ChaGo-K-1 | 0.549
140 | NCI-H3122 | 0.207
141 | HCC-78 | 0.32
142 | SW 900 | 0.533
143 | NCI-H441 | 0.471
144 | NCI-H1395 | 0.599
145 | NCI-H1793 | 0.154
146 | LCLC-103H | 0.414
147 | NCI-H1650 | 0.532

Compound: CC1(COc2ccc3c(c2)ncn3-c2ccc3cccc(N4CCC(N)CC4)c3n2)COC1 [Crenolanib] + C[C@@H](Oc1cc(-c2cnn(C3CCNCC3)c2)cnc1N)c1c(Cl)ccc(F)c1Cl [Crizotinib] (partner 1 µM)
Experiment: as above
Details: first compound 0.01 µM
How it was run: as §1

Row | Cell Line | relative viability
148 | NCI-H838 | 0.883
149 | NCI-H1651 | 0.895
150 | EBC-1 | 0.18
151 | NCI-H1734 | 0.684
152 | NCI-H2009 | 1.07
153 | PC-14 | 0.902
154 | LCLC-97TM1 | 0.42
155 | NCI-H596 | 1.01
156 | NCI-H2228 | 0.483
157 | EMC-BAC-2 | 0.757
158 | NCI-H2087 | 0.693
